In US20140128357A1, “METHODS OF PRODUCING AND USING BRASSINOSTEROIDS TO PROMOTE GROWTH, REPAIR AND MAINTENANCE OF SKELETAL MUSCLE AND SKIN” (Rutgers University, priority 2010, published 2014):
pIC50: −log10 of the molar value. Like-named read-outs stand apart in the source and are kept apart here.

Key:
L6 rat myotubes [1] = assay: Protein synthesis, [3H]-phenylalanine incorporation in myotubes; type: cell-based; conditions: 10 μM; for Protein synthesis (% increase over control): 4 h
Experimental: (§1) In some aspects, cell culture experiments were carried out. Rat L6 skeletal muscle cell line CRL-1458 was obtained from ATCC (Manassas, Va.). Myoblasts were routinely maintained in Dulbecco's modified Eagle's medium (DMEM) containing 10% FBS and 0.1% penicillin-streptomycin at 37° C. and 5% CO2. Cells were subcultured into 24-well plates for protein synthesis, degradation, and cell viability studies and into 6-well plates for Western blot analyses (Greiner Bio One, Monroe, N.C.). Once cells reached 90% confluence, differentiation was induced by lowering the serum concentration to 2%, and medium was changed every 2 days. After 7-9 days of culture the myoblasts had fused into multinucleated myotubes (Mandel et al., Nature 251:618-620, 1974). NIH 3T3 murine embryonic fibroblast cell line (ATCC #CCL-92) was maintained in DMEM and 10% FBS at 37° C. in 5% CO2, and passaged every 3-4 days.
In various aspects, protein synthesis is measured to determine the effect of brassinosteroid on a particular protein. All known methods for measuring protein synthesis are included in the methods of the disclosure. In brassinosteroid dose response studies, fully differentiated myotubes were washed with serum-free DMEM and treated in triplicate with vehicle (0.1% ethanol), increasing concentrations of HB, or 6.5 nM of insulin-like growth factor-1 (IGF-1) as a positive control. Compounds were added to serum-free medium containing 0.5 μCi/mL [^3H]-phenylalanine and incubated for 4 h. For the HB time course study, fully differentiated myotubes were treated with 3 μM HB for 1-24 h using the same culture conditions. The incubation was stopped by placing cells on ice, discarding the medium, and washing the cells extensively with ice-cold PBS to remove the non-incorporated radiolabel. Proteins were precipitated with 5% trichloroacetic acid and dissolved in 0.5N NaOH (Montgomery et al., Methods Cell. Sci. 24:123-129, 2002). Specific radioactivity of protein-bound phenylalanine was quantified using liquid scintillation counter LS 6500 (Beckman Coulter, Fullerton, Calif.) and normalized to mg of total protein determined by BCA protein assay (Pierce Biotechnology, Rockford, Ill.).
The bioactivity of HB and its analogs was evaluated by measuring increases in protein synthesis in the L6 rat skeletal muscle cells in vitro. Cells were incubated for 4 h with [^3H]-phenylalanine and treated in triplicate with vehicle (0.1% ethanol) or test compound (10 μM), and protein synthesis was measured as incorporation of [^3H]-phenylalanine into protein normalized by total protein (Table 3). Under these conditions, both HB and (22S,23S)-homocastasterone increased protein synthesis by 37.2±5.9% (p<0.001) and 41.0±2.7% (p<0.001), respectively. This protein synthesis increase compared favorably to the biological activity of IGF-1 at 6.5 nM (42.5±4.5%, p<0.001) that served as a positive control in this assay. Removal of the 2α-hydroxyl group and fluorination at C-3 in the A ring (compound IDs 3-4 in Table 3) led to about a 50% decrease in bioactivity (24.6±5.3%, p<0.01 and 22.5±2.7%, p<0.01, respectively) compared to the positive control. However, there was still an increase in protein synthesis. […] Modifications in the side chain (compound IDs 7-9 in Table 3) abolished the activity.

L6 rat myotubes [2] = assay: Protein degradation, release of acid-soluble [3H]-phenylalanine; type: cell-based; conditions: 10 μM; for Protein degradation (% decrease over control): 4 h
Experimental: as §1, with “After 7-9 days of culture the myoblasts had fused into multinucleated myotubes (Mandel et al., Nature 251:618-620, 1974).” left out
In various aspects, protein degradation is measured to determine the effect of brassinosteroid on a particular protein. All known methods for measuring protein degradation are included in the methods of the disclosure. The effect of brassinosteroids on protein degradation was investigated in fully differentiated myotubes as described by Fawcett et al. (Arch. Biochem. Biophys. 385:357-363, 2001) with slight modifications. Fully differentiated myotubes were incubated for 16 h to allow labeling of cellular proteins with 1.5 μCi/mL [^3H]-phenylalanine. […] The incubation was stopped by placing the cells on ice, and protein in the medium was precipitated with 5% trichloroacetic acid. Specific radioactivity of protein-free phenylalanine was quantified using liquid scintillation counter LS 6500 (Beckman Coulter, Fullerton, Calif.) and normalized to mg of total cell protein determined by BCA protein assay (Pierce Biotechnology, Rockford, Ill.).
The bioactivity of HB and its analogs (as shown in Table 3) were also evaluated by measuring decreases in protein degradation in the L6 rat skeletal muscle cells in vitro. Cells were labeled overnight with [^3H]-phenylalanine and subsequently treated for 4 h in triplicate with vehicle (0.1% ethanol) or test compound (10 μM), and protein degradation was assessed as release of acid-soluble [^3H]-phenylalanine into the media normalized by total protein (Table 3).

[3] = test system: NIH 3T3 murine fibroblast cell line; assay: Cytotoxicity, MTT assay in 3T3 fibroblasts; type: cell-based, mouse
Experimental: FIG. 9. Cell survival curves as measured by MTT assay for brassinosteroids 1-9 against the murine fibroblast cell line NIH-3T3. Cells were incubated with various concentrations of brassinosteroids (0.3-30 μM) for 24 h at 37° C. The mean absorbance of the control cells represented 100% cell proliferation, and the mean absorbance of treated cells was related to control values to determine sensitivity. Error bars represent standard error (n=6) from mean cell proliferation as determined by repeated experiments.
In various aspects, cell viability is measured and the effects of doses of compound and test reagents are tested in cell lines. In some aspects, cell viability was measured by the MTT (3-(4,5-Dimethylthiazol-2-yl)-2,5-diphenyltetrazolium bromide) assay in triplicate (Mosmann et al., J. Immunol. Methods 65:55-63, 1983) and quantified spectrophotometrically at 550 nm using a microplate reader (Molecular Devices, Sunnyvale, Calif.).
3T3 fibroblasts were seeded in a 96-well flat bottom plate at a density of 1×10^4 cells/well. Cell viability was measured by an MTT (3-(4,5-Dimethylthiazol-2-yl)-2,5-diphenyltetrazolium bromide) assay in triplicate (0.3-30 μM of test substance for […]) essentially as described by Mosmann (J. Immunol. Methods 65, 55-63, 1983) and quantified spectrophotometrically at 550 nm using a microplate reader (Molecular Devices, Sunnyvale, Calif.). […] For cell proliferation studies, cells were treated in triplicate with 0.1-10 μM of test substance for 24 h and assayed using a BrdU (5-bromo-2′-deoxyuridine) kit from Amersham (Uppsala, Sweden).

[4] = test system: 3T3 Swiss fibroblast monolayers; assay: Scratch wound closure in vitro; type: cell-based, mouse; conditions: for Scratch wound closure at 5 μM, % of control: 12 h (Table 6); for Wound Closure (% over control): 10 μM, 12 h (Table 4)
Experimental: 3T3 fibroblasts were seeded into 24-well dishes at a concentration of 3×10^5 cells/ml and cultured to nearly confluent cell monolayers. On the day of the experiment, a linear wound was generated in the monolayer with a sterile 100 μl plastic pipette tip and any cellular debris was removed by washing cells once with sterile PBS. Fresh DMEM medium containing vehicle (0.1% ethanol), positive control (0.5% FBS), or various concentrations of the fractions, sub-fractions or pure compounds was added to a set of 3 wells per dose and incubated for 12 h at 37° C. with 5% CO2. Cells were then visualized with 20 μl of 10% methylene blue in PBS for 5 min. Three representative images of the scratched areas from each well were photographed at 0 and 12 h to estimate the scratch wound closure. Images were analyzed using ImageJ program (NIH, Bethesda, Md.) and % wound closure was calculated relative to vehicle control and was reported as wound closure % over control (Table 4). 3T3 Swiss fibroblast were seeded into 24-well tissue culture at a concentration of 3×10^5 cells/ml and cultured to nearly confluent cell monolayers. Then, a linear wound was generated in the monolayer with a sterile 100 μl plastic pipette tip. Any cellular debris was removed by washing with PBS. DMEM medium with vehicle (0.1% ethanol), FBS (1%, positive control), or various concentrations of brassinosteroids were added to a set of 3 wells per dose and incubated for 12 h at 37° C. with 5% CO2. Cells were visualized in 10% methylene blue for 5 minutes. Three representative images from each well of the scratched areas under each condition were photographed to estimate the relative migration of cells at 0 and 12 h post-treatment. Data were analyzed using ImageJ software available online from the National Institutes of Health (rsbweb.nih.gov/ij/) by calculating the percentage of scratch closure at each dose point relative to control.

[5] = test system: orchiectomized (ORX) Wistar rats; type: in vivo, rat; conditions: ORX rats, 0.4 mg/kg subcutaneous 10 d, positive control of oral study
Experimental: Protocol 3: Four-week-old sham-operated (sham, n=6) or orchiectomized (ORX, n=24) Wistar rats (Charles River Laboratories, MA) were subject to a 10-d Hershberger assay (surgically castrated peri-pubertal adult model) under the following experimental conditions: sham, ORX (vehicle), ORX (20 mg/kg HB orally), ORX (60 mg/kg HB orally), and ORX (0.4 mg/kg testosterone propionate subcutaneously, serving as a positive control for the assay). All procedures and measurements followed protocol 1, except no body composition measurements were taken. Limb grip strength was measured for control animals and animals receiving 60 mg/kg HB using a digital force gauge (Wagner Instruments model FDV5) by Product Safety Laboratories (Dayton, N.J.). After the rats were allowed to grip the screen with paws, the animals were quickly pulled until the paws released from the screen, and the required release force was recorded. Three trials on each animal were performed in triplicate, and significance was determined using Student's t test (p<0.05). In addition to the gastrocnemius muscle, androgen-sensitive tissues (ventral prostate, seminal vesicles, bulbocavernosus/levator ani muscle complex, glans penis, and Cowper's gland) were dissected out and weighed.
The muscle samples for histochemical analysis were taken from the middle section of the mixed-fiber gastrocnemius muscle of the castrated animals treated according to protocol 4 (described herein above) to allow for the observation of differences in fiber type distribution and cross-section area associated with ORX and HB treatments. Serial transverse cryosections (10 μm) were prepared from each muscle and were analyzed for myofibrillar adenosine triphosphatase (mATPase) histochemistry after alkaline (pH=9.5) preincubation. Fiber cross-section area and enzyme activity levels were determined from digitized images of the muscle cross-sections that were stored as gray-level pictures using ImageJ software (National Institutes of Health, Bethesda, Md.). […]

[6] = test system: orchiectomized (ORX) Wistar rats; assay: 10-d Hershberger assay in ORX rats, subcutaneous HB (Protocol 4); type: in vivo, rat; conditions: 0.4 mg/kg subcutaneous daily 10 d
Experimental: Protocol 4: Four-week-old sham-operated (sham, n=6) or orchiectomized (ORX, n=24) Wistar rats (Charles River Laboratories, MA) were subject to a 10-d Hershberger assay (surgically castrated peri-pubertal adult model) under the following experimental conditions: sham, ORX (vehicle), ORX (0.4 mg/kg HB subcutaneously), ORX (4 mg/kg HB subcutaneously), and ORX (0.4 mg/kg testosterone propionate subcutaneously, serving as a positive control for the assay). All procedures and measurements followed protocol 1. […]

SMILES | Protein synthesis (% increase over control) (L6 rat myotubes [1]) | Protein degradation (% decrease over control) (L6 rat myotubes [2]) | pIC50 [3] | cytotoxicity compared to the original brassinosteroids [3] | Scratch wound closure at 5 μM, % of control [4] | Wound Closure (% over control) [4] | effect of structural modification on activation of protein synthesis, in words (L6 rat myotubes [1]) | effect of structural modification on protein degradation activity, in words (L6 rat myotubes [2]) | concentration of highest scratch wound closure activity ([4]; 0.1-10 μM, 12 h (FIG. 17)) | Bulbocavernosus/levator ani weight [5] | Cowper's gland weight [5] | Glans penis weight [5] | Seminal vesicles weight [5] | Ventral prostate weight [5] | Bulbocavernosus/levator ani weight [6] | Cowper's gland weight [6] | Glans penis weight [6] | Seminal vesicles weight [6] | Ventral prostate weight [6]
CC[C@@H](C(C)C)[C@H](O)[C@@H](O)[C@@H](C)[C@H]1CC[C@H]2[C@@H]3COC(=O)[C@H]4C[C@H](F)CC[C@]4(C)[C@H]3CC[C@]12C [Compound 3, (22S,23S,24S)-3α-fluoro-22,23-dihydroxy-24-ethyl-B-homo-7-oxa-5α-cholestan-6-one] | 24.6±5.3% | −20.8 ± 0.5 % | ~4.52 | increased cytotoxicity | 15.3 ± 2.6% | 15.3 ± 2.6% |  |  |  |  |  |  |  |  |  |  |  |  | 
CC[C@@H](C(C)C)[C@H](O)[C@@H](O)[C@@H](C)[C@H]1CC[C@H]2[C@@H]3CNC(=O)[C@H]4C[C@H](O)[C@H](O)C[C@]4(C)[C@H]3CC[C@]12C [Compound 6, (22S,23S,24S)-2α,3α-22,23-tetrahydroxy-24-ethyl-B-homo-7-aza-5α-cholestan-6-one] | 20.9 ± 2.4 % | −0.6 ± 2.9% | < 4.52 |  | 30.5 ± 4.2 % | 27.3 ± 3.6 % | reduced biological activity by half | completely abolished its effect on protein degradation | 3 µM |  |  |  |  |  |  |  |  |  | 
CCC(=O)O[C@H]1CC[C@H]2[C@@H]3CCC4=CC(=O)CC[C@]4(C)[C@H]3CC[C@]12C [testosterone propionate, reference compound] |  |  |  |  |  |  |  |  |  | 382.0 ± 22.0 mg | 34.5 ± 4.7 mg | 93.8 ± 4.2 mg | 262.5 ± 12.5 mg | 110.50 ± 9.5 mg | 293.8 ± 19.0 mg | 34.3 ± 1.9 mg | 72.3 ± 4.5 mg | 228.7 ± 35.3 mg | 92.8 ± 6.3 mg
